Results reported in patent publication US12570988B2, “Aptamers that bind thiamine analogs and derivatives” (MeiraGTx Gene Regulation Limited, priority 2020, dated 2026).

Experiments:
riboswitch 15D10 [1] = experiment: Luciferase reporter with 15D10 riboswitch (Luci-15D10) in HEK 293 cells; assay type: cell-based, human; details: HEK 293 cells; for fold induction at 50 µM: Homo sapiens, HEK293, 24 h, read-out: Fold increase in riboswitch 15D10-regulated luciferase expression, HEK; for effect on luciferase expression from Luci-15D10: FIG. 9A, 9C; for fold induction at 50 µM / Fold increase in riboswitch 15D10-regulated luciferase expression, HEK: 50 μM
Procedure: Transfection: 3.5×10^4 human embryonic kidney (HEK) 293 cells were plated in a 96-well flat bottom plate the day before transfection. Plasmid DNA (500 ng) was added to a tube or a 96-well U-bottom plate. […] Then, 50 μL of this diluted transfection reagent was added to the DNA, mixed, and incubated at RT for 20 min. Finally, 7 μL of this solution was added to a well of cells in the 96-well plate. Four hours after transfection, medium containing transfection solution was replaced by medium containing either TPP, fursultiamine, prosultiamine, bisbentiamine, beclotiamine hydrochloride, or sulbutiamine as aptamer inducers.
Firefly luciferase assay of cultured cells: Twenty-four hours after media change, plates were removed from the incubator, and equilibrated to RT for several minutes on a lab bench, then aspirated. Glo-lysis buffer (Promega, 100 μL, RT) was added, and the plates allowed to remain at RT for at least 5 minutes. Then, the well contents were mixed by 50 μL trituration, and 20 μL of each sample was mixed with 20 μL of bright-glo reagent (Promega) that had been diluted to 10% in glo-lysis buffer. 96 wells were spaced on an opaque white 384-well plate. Following a 5 min incubation at RT, luminescence was measured using a Tecan machine with 500 ms read time. The luciferase activity was expressed as mean arbitrary light units (ALU)±S.D., and fold induction was calculated as the quotient of the luciferase activity obtained from cells with TPP or analog treatment divided by the luciferase activity obtained from cells without TPP or analog treatment.

riboswitch 15D10 [2] = experiment: Luciferase reporter with 15D10 riboswitch (Luci-15D10) in AML12 cells; assay type: cell-based, mouse; details: 50 μM, AML12 cells; for fold induction at 50 µM: Mus musculus, AML12, 24 h, read-out: Fold increase in riboswitch 15D10-regulated luciferase expression, AML

C/C(=C(\CCO)SC(=O)c1ccc2sccc2c1)N(C=O)Cc1cnc(C)nc1N [Compound M79, (Z)—S-(2-(N-((4-amino-2-methylpyrimidin-5-yl)methyl)formamido)-5-hydroxypent-2-en-3-yl) benzo[b]thiophene-5-carbothioate]
fold induction at 50 µM (riboswitch 15D10 [1]; Table 2): 353 | fold induction at 50 µM (riboswitch 15D10 [2]; Table 2): 358

C/C(=C(\CCOP(=O)(O)O)SC(=O)C(C)(C)C)N(C=O)Cc1cnc(C)nc1N [Compound M31, (Z)—S-(2-(N-((4-Amino-2-methylpyrimidin-5-yl)methyl)formamido)-5-(phosphonooxy)pent-2-en-3-yl) 2,2-dimethylpropanethioate]
effect on luciferase expression from Luci-15D10 (riboswitch 15D10 [1]): no effect on luciferase expression

C/C(=C(\CCO)SC(=O)c1ccc(C)cc1Oc1ccccc1Cl)N(C=O)Cc1cnc(C)nc1N [Compound M133, (Z)—S-(2-(N-((4-amino-2-methylpyrimidin-5-yl)methyl)formamido)-5-hydroxypent-2-en-3-yl) 2-(2-chlorophenoxy)-4-methylbenzothioate]
fold induction at 50 µM (riboswitch 15D10 [1]; Table 3): 100 | fold induction at 50 µM (riboswitch 15D10 [2]; Table 3): 273

C/C(=C(\CCO)SC(=O)c1cc(Cl)ccc1Oc1ccccc1Br)N(C=O)Cc1cnc(C)nc1N [Compound M159, (Z)—S-(2-(N-((4-amino-2-methylpyrimidin-5-yl)methyl)formamido)-5-hydroxypent-2-en-3-yl) 2-(2-bromophenoxy)-5-chlorobenzothioate]
fold induction at 50 µM (riboswitch 15D10 [1]; Table 3): 85.5 | fold induction at 50 µM (riboswitch 15D10 [2]; Table 3): 206

C/C(=C(\CCOP(=O)(O)O)SC(=O)c1c(Cl)cccc1Cl)N(C=O)Cc1cnc(C)nc1N [Compound M33, (Z)—S-(2-(N-((4-Amino-2-methylpyrimidin-5-yl)methyl)formamido)-5-(phosphonooxy)pent-2-en-3-yl) 2,6-dichlorobenzothioate]
effect on luciferase expression from Luci-15D10 (riboswitch 15D10 [1]): no effect on luciferase expression

C/C(=C(\CCO)SC(=O)c1ccc(C)c2ccccc12)N(C=O)Cc1cnc(C)nc1N [Compound M37, (Z)—S-(2-(N-((4-amino-2-methylpyrimidin-5-yl)methyl)formamido)-5-hydroxypent-2-en-3-yl) 4-methylnaphthalene-1-carbothioate]
fold induction at 50 µM (riboswitch 15D10 [1]; Table 2): 76.2 | fold induction at 50 µM (riboswitch 15D10 [2]; Table 2): 134

C/C(=C(\CCO)SC(=O)c1ccc(-c2ccccc2)cc1Cl)N(C=O)Cc1cnc(C)nc1N [Compound M68, (Z)—S-(2-(N-((4-amino-2-methylpyrimidin-5-yl)methyl)formamido)-5-hydroxypent-2-en-3-yl) 3-chloro-[1,1′-biphenyl]-4-carbothioate]
fold induction at 50 µM (riboswitch 15D10 [1]; Table 2): 303 | fold induction at 50 µM (riboswitch 15D10 [2]; Table 2): 209

C/C(=C(\CCO)SC(=O)c1cc2ccccc2c2ccccc12)N(C=O)Cc1cnc(C)nc1N [Compound M43, (Z)—S-(2-(N-((4-amino-2-methylpyrimidin-5-yl)methyl)formamido)-5-hydroxypent-2-en-3-yl) phenanthrene-9-carbothioate]
Fold increase in riboswitch 15D10-regulated luciferase expression, HEK (riboswitch 15D10 [1]; Table 2): 10.2 fold | Fold increase in riboswitch 15D10-regulated luciferase expression, AML (riboswitch 15D10 [2]; Table 2): 95.3 fold

C/C(=C(\CCO)SC(=O)C(c1ccccc1)C(C)C)N(C=O)Cc1cnc(C)nc1N (stereo not drawn) [Compound M59, (Z)—S-(2-(N-((4-amino-2-methylpyrimidin-5-yl)methyl)formamido)-5-hydroxypent-2-en-3-yl) 3-methyl-2-phenylbutanethioate]
fold induction at 50 µM (riboswitch 15D10 [1]; Table 2): 1.1 | fold induction at 50 µM (riboswitch 15D10 [2]; Table 2): 1

C/C(=C(\CCO)SC(=O)c1ccccc1Oc1c(Cl)cccc1Cl)N(C=O)Cc1cnc(C)nc1N [Compound M138, (Z)—S-(2-(N-((4-amino-2-methylpyrimidin-5-yl)methyl)formamido)-5-hydroxypent-2-en-3-yl) 2-(2,6-dichlorophenoxy)benzothioate]
fold induction at 50 µM (riboswitch 15D10 [1]; Table 3): 228 | fold induction at 50 µM (riboswitch 15D10 [2]; Table 3): 195

C/C(=C(\CCO)SC(=O)c1cc2ccccc2c2ccccc12)N(C=O)Cc1cnc(C)nc1N [Compound M40, (Z)—S-(2-(N-((4-amino-2-methylpyrimidin-5-yl)methyl)formamido)-5-hydroxypent-2-en-3-yl) phenanthrene-9-carbothioate]
Fold increase in riboswitch 15D10-regulated luciferase expression, HEK (riboswitch 15D10 [1]; Table 2): 83.1 fold | Fold increase in riboswitch 15D10-regulated luciferase expression, AML (riboswitch 15D10 [2]; Table 2): 206.0 fold

C/C(=C(\CCO)SCOC(=O)c1cccc2ccccc12)N(C=O)Cc1cnc(C)nc1N [Compound M97, (Z)-((2-(N-((4-amino-2-methylpyrimidin-5-yl)methyl)formamido)-5-hydroxypent-2-en-3-yl)thio)methyl 1-naphthoate]
fold induction at 50 µM (riboswitch 15D10 [1]; Table 2): 299 | fold induction at 50 µM (riboswitch 15D10 [2]; Table 2): 126

C/C(=C(\CCO)SC(=O)C1(c2cccc(Br)c2)CC1)N(C=O)Cc1cnc(C)nc1N [Compound M65, (Z)—S-(2-(N-((4-amino-2-methylpyrimidin-5-yl)methyl)formamido)-5-hydroxypent-2-en-3-yl) 1-(3-bromophenyl)cyclopropane-1-carbothioate]
fold induction at 50 µM (riboswitch 15D10 [1]; Table 2): 3.2 | fold induction at 50 µM (riboswitch 15D10 [2]; Table 2): 67.1

C/C(=C(\CCO)SCOC(=O)C(C)(c1ccccc1)c1ccccc1)N(C=O)Cc1cnc(C)nc1N [Compound M103, (Z)-((2-(N-((4-amino-2-methylpyrimidin-5-yl)methyl)formamido)-5-hydroxypent-2-en-3-yl)thio)methyl 2,2-diphenylpropanoate]
fold induction at 50 µM (riboswitch 15D10 [1]; Table 2): 0.9 | fold induction at 50 µM (riboswitch 15D10 [2]; Table 2): 0.5

C/C(=C(\CCO)SC(=O)c1cccc2c(Br)cccc12)N(C=O)Cc1cnc(C)nc1N [Compound M111, (Z)—S-(2-(N-((4-amino-2-methylpyrimidin-5-yl)methyl)formamido)-5-hydroxypent-2-en-3-yl) 5-bromonaphthalene-1-carbothioate]
fold induction at 50 µM (riboswitch 15D10 [1]; Table 2): 181 | fold induction at 50 µM (riboswitch 15D10 [2]; Table 2): 175

C/C(=C(\CCO)SC(=O)C1(C)CCCCC1)N(C=O)Cc1cnc(C)nc1N [Compound M57, (Z)—S-(2-(N-((4-amino-2-methylpyrimidin-5-yl)methyl)formamido)-5-hydroxypent-2-en-3-yl) 1-methylcyclohexane-1-carbothioate]
fold induction at 50 µM (riboswitch 15D10 [1]; Table 2): 1.2 | fold induction at 50 µM (riboswitch 15D10 [2]; Table 2): 24.4

C/C(=C(\CCO)SC(=O)C(C)(c1ccccc1)c1ccccc1)N(C=O)Cc1cnc(C)nc1N [Compound M58, (Z)—S-(2-(N-((4-amino-2-methylpyrimidin-5-yl)methyl)formamido)-5-hydroxypent-2-en-3-yl) 2,2-diphenylpropanethioate]
fold induction at 50 µM (riboswitch 15D10 [1]; Table 2): 1.1 | fold induction at 50 µM (riboswitch 15D10 [2]; Table 2): 1.5

COc1ccc2c(C(=O)S/C(CCO)=C(/C)N(C=O)Cc3cnc(C)nc3N)cccc2c1 [Compound M108, (Z)—S-(2-(N-((4-amino-2-methylpyrimidin-5-yl)methyl)formamido)-5-hydroxypent-2-en-3-yl) 6-methoxynaphthalene-1-carbothioate]
fold induction at 50 µM (riboswitch 15D10 [1]; Table 2): 75.8 | fold induction at 50 µM (riboswitch 15D10 [2]; Table 2): 129

C/C(=C(\CCO)SC(=O)C(C)C)N(C=O)Cc1cnc(C)nc1N [Compound M27, (Z)—S-(2-(N-((4-Amino-2-methylpyrimidin-5-yl)methyl)formamido)-5-hydroxypent-2-en-3-yl) 2-methylpropanethioate]
effect on luciferase expression from Luci-15D10 (riboswitch 15D10 [1]): increased luciferase expression

C/C(=C(\CCO)SC(=O)c1ccccc1)N(C=O)Cc1cnc(C)nc1N [Compound M26, (Z)—S-(2-(N-((4-Amino-2-methylpyrimidin-5-yl)methyl)formamido)-5-hydroxypent-2-en-3-yl) benzothioate]
effect on luciferase expression from Luci-15D10 (riboswitch 15D10 [1]): increased luciferase expression

COc1ccc(C(=O)S/C(CCO)=C(/C)N(C=O)Cc2cnc(C)nc2N)cc1 [Compound M29, (Z)—S-(2-(N-((4-Amino-2-methylpyrimidin-5-yl)methyl)formamido)-5-hydroxypent-2-en-3-yl) 4-methoxybenzothioate]
effect on luciferase expression from Luci-15D10 (riboswitch 15D10 [1]): increased luciferase expression

C/C(=C(\CCO)SC(C)OC(=O)C(C)(C)C)N(C=O)Cc1cnc(C)nc1N (stereo not shown) [Compound M18, (Z)-1-((2-(N-((4-Amino-2-methylpyrimidin-5-yl)methyl)formamido)-5-hydroxypent-2-en-3-yl)thio)ethyl pivalate]
effect on luciferase expression from Luci-15D10 (riboswitch 15D10 [1]): increased

C/C(=C(\CCO)SC(=O)c1c(Cl)cccc1Cl)N(C=O)Cc1cnc(C)nc1N [Compound M30, (Z)—S-(2-(N-((4-Amino-2-methylpyrimidin-5-yl)methyl)formamido)-5-hydroxypent-2-en-3-yl) 2,6-dichlorobenzothioate]
effect on luciferase expression from Luci-15D10 (riboswitch 15D10 [1]): no effect on luciferase expression

C/C(=C(\CCO)SC(=O)C(C)(C)C)N(C=O)Cc1cnc(C)nc1N [Compound M28, (Z)—S-(2-(N-((4-Amino-2-methylpyrimidin-5-yl)methyl)formamido)-5-hydroxypent-2-en-3-yl) 2,2-dimethylpropanethioate]
effect on luciferase expression from Luci-15D10 (riboswitch 15D10 [1]): increased luciferase expression
